Values of other authors, collected in US20030099725A1, “Herbal compositions useful as chemopreventive and therapeutic agents and methods of manufacturing same” (priority 2001, published 2003).

System: women at high risk of breast cancer

CC/C(=C(\c1ccccc1)c1ccc(OCCN(C)C)cc1)c1ccccc1 [Tamoxifen]
decrease in invasive cancer versus placebo: 49%
decrease in non-invasive breast cancer versus placebo: 50%
